Patent US8921397B2, “Benzofurane-piperidine compounds” (Hoffmann-La Roche Inc., priority 2011, dated 2014)
pKi: −log10 of the molar value.

Assays:
human 5-HT2A receptor = human 5-HT2A receptor (Homo sapiens (Human), UniProt P28223); test: Radioligand binding ([3H]-ketanserin) to human 5-HT2A receptor, HEK293 EBNA membranes; settings: HEK293 EBNA cells expressing human 5-HT2A receptor
Method: The ability of the compounds to bind to the 5-HT2A, D3 and D2 receptors was determined using radioligand binding to cloned receptors selectively expressed in HEK-293 EBNA cells.
(§1) HEK293 EBNA cells were transiently transfected with expression plasmids encoding for the human D2 or D3 or for the human 5-HT2A receptor, respectively. The cells were harvested 48 h post-transfection, washed three times with cold PBS and stored at −80° C. prior to use. The pellet was suspended in cold 50 mM Tris-HCl buffer containing 10 mM EDTA (pH 7.4) and was homogenized with a Polytron (Kinematica AG, Basel, Switzerland) for 20-30 sec at 12.000 rpm. After centrifugation at 48.000×g for 30 min at 4° C., the pellet was resuspended in cold 10 mM Tris-HCl buffer containing 0.1 mM EDTA (pH 7.4), homogenized, and centrifuged as above. This pellet was further resuspended in a smaller volume of ice cold 10 mM Tris-HCl buffer containing 0.1 mM EDTA (pH 7.4) and homogenized with a Polytron for 20-30 sec at 12.000 rpm. The protein content of this homogenate was determined with the Bio-Rad (Bradford) Protein Assay (Biorad Laboratories GmbH, München, Germany) according to the instructions of the manufacturer using gamma globulin as the standard. This homogenate was stored at −80° C. in aliquots and thawed immediately prior to use.
(§2) Aliquots of membrane preparations were thawed at RT, resuspended in assay buffer (D2, D3: 50 mM Tris-HCl, 120 mM NaCl, 5 mM MgCl2, 1 mM EDTA, 5 mM KCl, 1.5 mM CaCl2, pH=7.4; 5-HT2A: 50 mM Tris-HCl, 10 mM MgCl2, 1 mM EGTA, pH=7.4), homogenized with a Polytron for 20-30 sec at 12.000 rpm and adjusted to a final concentration of approximately 7.5 μg protein/well (D2, D3) and 15 μg protein/well (5-HT2A), respectively.
(§3) The binding affinity (Ki) of the compounds was determined using radioligand binding.
(§4) Membranes were incubated in a total volume of 200 μl with a fixed concentration of radioligand (final concentration approximately 0.7 nM [^3H]-spiperone for D2, 0.5 nM [^3 H]-spiperone for D3, and 1.1 nM [^3H]-ketanserin for 5-HT2A) and ten concentrations of test compound in ranging between 10 μM-0.1 nM for 1 h at RT. At the end of the incubation, the reaction mixtures were filtered on to unifilter 96-well white microplates with bonded GF/C filters (Packard BioScience, Zürich, Switzerland; preincubated for 1 h in 0.1% polyethylenimine (PEI) in assay buffer) with a Filtermate 196 harvester (Packard BioScience) and washed 3 times with cold assay buffer. The nonspecific binding was determined with equally composed reaction mixtures in the presence of 10 μM unlabelled spiperone. Per well 45 μl of Microscint 40 (Perkin Elmer, Schwerzenbach, Switzerland) was added, plates for sealed, shaken for 20 min and counted for 3 min on a Topcount Microplate Scintillation Counter (Canberra Packard SA, Zürich, Switzerland) with quenching correction.
(§5) The CPM value for each duplicate of a concentration of competing compound was averaged (y1), then the % specific binding was calculated according to the equation (((y1−non-specific)/(total binding−non-specific))×100). Graphs were plotted with the % specific binding using XLfit, a curve-fitting program that iteratively plots the data using Levenberg-Marquardt algorithm. The single site competition analysis equation used was y=A+((B−A)/(1+((x/C)D))), where y is the % specific binding, A is the minimum y, B is the maximum y, C is the IC50, x is the log 10 of the concentration of the competing compound and D is the slope of the curve (the Hill Coefficient). From these curves the IC50 (inhibition concentration at which 50% specific binding of the radioligand was displaced) and Hill coefficient were determined. The affinity constant (Ki) was calculated using the Cheng-Prusoff equation Ki=(IC50/1+([L]/Kd), where [L] is the concentration of radioligand and Kd is the dissociation constant of the radioligand at the receptor as determined by the saturation isotherm.

human D3 receptor = human D3 receptor (Homo sapiens (Human), UniProt P35462); test: Radioligand binding ([3H]-spiperone) to human D3 receptor, HEK293 EBNA membranes; settings: HEK293 EBNA cells expressing human D3 receptor
Sequence of human D3 receptor (P35462 whole entry): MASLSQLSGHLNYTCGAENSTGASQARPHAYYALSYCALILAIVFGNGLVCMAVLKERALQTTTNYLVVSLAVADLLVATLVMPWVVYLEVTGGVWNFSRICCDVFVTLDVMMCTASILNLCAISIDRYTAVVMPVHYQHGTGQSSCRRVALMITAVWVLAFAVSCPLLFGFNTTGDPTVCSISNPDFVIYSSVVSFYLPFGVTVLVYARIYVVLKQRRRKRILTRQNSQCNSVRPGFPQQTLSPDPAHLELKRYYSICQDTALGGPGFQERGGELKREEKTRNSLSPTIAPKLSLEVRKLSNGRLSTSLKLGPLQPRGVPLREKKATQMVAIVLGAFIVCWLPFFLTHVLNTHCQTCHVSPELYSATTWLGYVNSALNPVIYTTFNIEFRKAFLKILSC
Method: as §1, §2, §3, §4, §5

human D2 receptor = human D2 receptor (Homo sapiens (Human), UniProt P14416); test: Radioligand binding ([3H]-spiperone) to human D2 receptor, HEK293 EBNA membranes; settings: HEK293 EBNA cells expressing human D2 receptor
Sequence of human D2 receptor (P14416 whole entry): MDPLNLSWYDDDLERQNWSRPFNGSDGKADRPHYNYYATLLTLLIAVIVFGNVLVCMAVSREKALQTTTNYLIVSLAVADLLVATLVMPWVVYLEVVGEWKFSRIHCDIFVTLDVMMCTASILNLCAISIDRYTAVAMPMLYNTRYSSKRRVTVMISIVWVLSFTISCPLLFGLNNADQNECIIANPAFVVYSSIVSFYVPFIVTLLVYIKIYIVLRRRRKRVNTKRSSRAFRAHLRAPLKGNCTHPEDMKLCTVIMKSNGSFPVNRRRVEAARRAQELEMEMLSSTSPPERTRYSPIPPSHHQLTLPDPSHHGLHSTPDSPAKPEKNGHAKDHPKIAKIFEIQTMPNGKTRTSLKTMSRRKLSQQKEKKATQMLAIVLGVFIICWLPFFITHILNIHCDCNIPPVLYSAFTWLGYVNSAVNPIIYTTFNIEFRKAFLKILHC
Method: as §1, §2, §3, §4, §5

Sequence of human 5-HT2A receptor (P28223 whole entry): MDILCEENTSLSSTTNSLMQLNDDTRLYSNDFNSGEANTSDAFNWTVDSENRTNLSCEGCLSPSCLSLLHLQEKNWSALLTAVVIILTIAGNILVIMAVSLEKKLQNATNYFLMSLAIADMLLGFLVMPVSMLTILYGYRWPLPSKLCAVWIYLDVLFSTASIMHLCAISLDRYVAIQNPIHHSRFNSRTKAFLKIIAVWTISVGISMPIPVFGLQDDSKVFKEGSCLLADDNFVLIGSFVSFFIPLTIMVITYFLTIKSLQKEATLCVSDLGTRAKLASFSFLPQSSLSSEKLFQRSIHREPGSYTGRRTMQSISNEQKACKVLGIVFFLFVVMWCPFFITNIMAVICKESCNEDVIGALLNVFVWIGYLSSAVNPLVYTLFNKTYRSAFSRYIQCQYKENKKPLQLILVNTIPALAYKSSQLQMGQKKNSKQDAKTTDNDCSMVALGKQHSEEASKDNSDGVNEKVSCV

| SMILES | pKi (human 5-HT2A receptor) | pKi (human D3 receptor) | melting point | pKi (human D2 receptor) |
| --- | --- | --- | --- | --- |
| O=C(N[C@H]1CC[C@H](CCN2CCC(c3coc4ccccc34)CC2)CC1)c1ccnc2ccccc12 [Example 19, Quinoline-4-carboxylic acid trans-{4-[2-(4-benzofuran-3-yl-piperidin-1-yl)-ethyl]-cyclohexyl}-amide] | 8.06 | 8.47 | 169 °C | 7.01 |
| O=C(N[C@H]1CC[C@H](CCN2CCC(c3coc4ccccc34)CC2)CC1)C1CCC1 [Example 20, Cyclobutanecarboxylic acid trans-{4-[2-(4-benzofuran-3-yl-piperidin-1-yl)-ethyl]-cyclohexyl}-amide] | 8.25 | 8.73 | 180 °C | 7.42 |
| O=C(CCO)N[C@H]1CC[C@H](CCN2CCC(c3coc4ccccc34)CC2)CC1 [Example 21, trans-N-{4-[2-(4-Benzofuran-3-yl-piperidin-1-yl)-ethyl]-cyclohexyl}-3-hydroxy-propionamide] | 8.08 | 8.90 | 148 °C | 7.20 |
| O=C(N[C@H]1CC[C@H](CCN2CCC(c3coc4ccccc34)CC2)CC1)C1(O)CC1 [Example 22, 1-Hydroxy-cyclopropanecarboxylic acid trans-{4-[2-(4-benzofuran-3-yl-piperidin-1-yl)-ethyl]-cyclohexyl}-amide] | 8.52 | 8.83 | 200 °C | 7.32 |
| N#CCC(=O)N[C@H]1CC[C@H](CCN2CCC(c3coc4ccccc34)CC2)CC1 [Example 23, trans-N-{4-[2-(4-Benzofuran-3-yl-piperidin-1-yl)-ethyl]-cyclohexyl}-2-cyano-acetamide] | 8.22 | 9.08 | 186 °C | 7.38 |
| O=C(N[C@H]1CC[C@H](CCN2CCC(c3coc4ccccc34)CC2)CC1)c1ccc(F)cc1 [Example 24, trans-N-{4-[2-(4-Benzofuran-3-yl-piperidin-1-yl)-ethyl]-cyclohexyl}-4-fluoro-benzamide] | 8.25 | 8.52 | 193 °C | 7.16 |
| O=C(CC1CC1)N[C@H]1CC[C@H](CCN2CCC(c3coc4ccccc34)CC2)CC1 [Example 25, trans-N-{4-[2-(4-Benzofuran-3-yl-piperidin-1-yl)-ethyl]-cyclohexyl}-2-cyclopropyl-acetamide] | 8.29 | 8.65 | 165 °C | 7.47 |
| O=C(N[C@H]1CC[C@H](CCN2CCC(c3coc4ccccc34)CC2)CC1)C1CCCOC1 (stereo partly drawn) [Example 26, Tetrahydro-pyran-3-carboxylic acid trans-{4-[2-(4-benzofuran-3-yl-piperidin-1-yl)-ethyl]-cyclohexyl}-amide] | 8.33 | 8.23 | 188 °C | 7.43 |
| O=C(N[C@H]1CC[C@H](CCN2CCC(c3coc4ccccc34)CC2)CC1)C1CC1 [Example 27, Cyclopropanecarboxylic acid trans-{4-[2-(4-benzofuran-3-yl-piperidin-1-yl)-ethyl]-cyclohexyl}-amide] | 8.37 | 8.57 | 204 °C | 7.64 |
| CC(C)(C)C(=O)N[C@H]1CC[C@H](CCN2CCC(c3coc4ccccc34)CC2)CC1 [Example 28, trans-N-{4-[2-(4-Benzofuran-3-yl-piperidin-1-yl)-ethyl]-cyclohexyl}-2,2-dimethyl-propionamide] | 8.22 | 7.89 | 157 °C | 7.42 |
| O=C(CC1CCCO1)N[C@H]1CC[C@H](CCN2CCC(c3coc4ccccc34)CC2)CC1 (stereo partly drawn) [Example 29, trans-N-{4-[2-(4-Benzofuran-3-yl-piperidin-1-yl)-ethyl]-cyclohexyl}-2-(tetrahydro-furan-2-yl)-acetamide] | 8.27 | 8.56 | 149 °C | 7.28 |
